Assay: solvent given as SMILES

`CCCCCC(CC)C1(C(CC)CCCCC)c2ccccc2-c2ccc(C#Cc3cc(C#Cc4ccc5c(c4)C(C(CC)CCCCC)(C(CC)CCCCC)c4ccccc4-5)c4ccc5c(C#Cc6ccc7c(c6)C(C(CC)CCCCC)(C(CC)CCCCC)c6ccccc6-7)cc(C#Cc6ccc7c(c6)C(C(CC)CCCCC)(C(CC)CCCCC)c6ccccc6-7)c6ccc3c4c65)cc21` (stereo not drawn) showed an absorption maximum (in C1CCCCC1) of 486 nm, an absorption maximum (in C1CCOC1) of 492 nm and an absorption maximum (in CCOC(C)=O) of 488 nm. For the same compound, the absorption maximum (in CN(C)C=O) was 496 nm, the absorption maximum (in Cc1ccccc1) was 488 nm and the absorption maximum (in ClC(Cl)Cl) was 491 nm. The absorption maximum (in ClCCl) was 492 nm.
Work on `COC(=O)c1cc(=O)n(C)c2cc(-c3cccc(OC)c3)sc12` yielded an absorption maximum (in CC#N) of 394 nm and an absorption maximum (in ClCCl) of 394 nm.
`O=c1oc2ccccc2c2c1c(=O)oc1cc(O)cc(O)c12` showed an absorption maximum (in CS(C)=O) of 388 nm and an absorption maximum (in ClCCl) of 385 nm.
With `CCC12C(=C3C(=C4c5ccc(-c6ccc(C(C)=O)cc6)cc5S(=O)(=O)C41CC)C(F)(F)C(F)(F)C3(F)F)c1ccc(-c3ccc(C(C)=O)cc3)cc1S2(=O)=O` (stereo not drawn) the absorption maximum (in C1COCCO1) was 456 nm.
`COC(=O)C[C@H](NC(=O)[C@H](Cc1c[nH]c2ccccc12)NC(=O)OC(C)(C)C)C(=O)OC` showed an absorption maximum (in CC#N) of 280 nm, an absorption maximum (in CCOC(C)=O) of 280 nm and an absorption maximum (in CO) of 280 nm.
`Cc1cc(C)c(B2c3cc(C(C)(C)C)cc4ccc5ccc6cc(C(C)(C)C)cc2c6c5c34)c(C)c1` showed an absorption maximum (in C1CCCCC1) of 427 nm.
`CC(C)[Si]1(C(C)C)c2cc(C=C(C#N)C#N)ccc2-c2ccc(N(C)C)cc21` gave an absorption maximum (in C1CCCCC1) of 480 nm, an absorption maximum (in CC#N) of 475 nm and an absorption maximum (in CCO) of 478 nm. It also gave an absorption maximum (in CCOCC) of 469 nm, an absorption maximum (in CS(C)=O) of 488 nm and an absorption maximum (in ClCCl) of 489 nm. It also gave an absorption maximum (in c1ccccc1) of 480 nm.
Work on `C(=C\c1cccnc1)/c1ccc(Nc2ccccc2)cc1` yielded an absorption maximum (in CC#N) of 358 nm and an absorption maximum (in CCCCCC) of 352 nm.
For `Cc1c2ccncc2c(C)c2c1[nH]c1ccccc12`, the absorption maximum (in C1CCCCC1) was 290 nm, the absorption maximum (in C1CCOC1) was 293.3 nm and the absorption maximum (in C1COCCO1) was 292.5 nm. The absorption maximum (in CC#N) was 291.5 nm, the absorption maximum (in CC(C)(C)O) was 294.5 nm and the absorption maximum (in CC(C)O) was 294.5 nm. For the same compound, the absorption maximum (in CCC(C)(C)O) was 294.5 nm, the absorption maximum (in CCCCCC) was 289.5 nm and the absorption maximum (in CCCCO) was 295 nm. For the same compound, the absorption maximum (in CCO) was 294 nm, the absorption maximum (in CCOC(C)=O) was 291.5 nm and the absorption maximum (in CCOCC) was 291.5 nm. It also gave an absorption maximum (in CN(C)C=O) of 293.5 nm, an absorption maximum (in CO) of 294 nm and an absorption maximum (in CS(C)=O) of 295 nm. For the same compound, the absorption maximum (in Cc1ccccc1) was 293 nm.
`CC(C)(C)c1ccc2c(c1)c1cc(C(C)(C)C)cc3c1n2-c1cc(-c2cccc(F)c2)cc2c1B3c1cc(C(C)(C)C)cc3c4cc(C(C)(C)C)ccc4n-2c13` gave an absorption maximum (in Cc1ccccc1) of 467.1 nm.
`CC(C)(C)c1ccc(C(C)(C)C)c(N2C(=O)c3cccc4c(-c5ccc(-c6ccccc6)s5)ccc(c34)C2=O)c1` showed an absorption maximum (in CO) of 403 nm, an absorption maximum (in CS(C)=O) of 405 nm and an absorption maximum (in Cc1ccccc1) of 398 nm.
`CCCCCCC1(CCCCCC)c2cc(-c3ccc(-c4ccc(-c5ccc(-c6ccc7c(c6)C(CCCCCC)(CCCCCC)c6cc(-n8c9ccc(-n%10c%11ccccc%11c%11ccccc%11%10)cc9c9cc(-n%10c%11ccccc%11c%11ccccc%11%10)ccc98)ccc6-7)s5)c5nsnc45)s3)ccc2-c2ccc(-n3c4ccc(-n5c6ccccc6c6ccccc65)cc4c4cc(-n5c6ccccc6c6ccccc65)ccc43)cc21` showed an absorption maximum (in ClCCl) of 514 nm.
In the case of `CC(C)(C)c1ccc2c(c1)c1cc(C(C)(C)C)ccc1n2-c1cc(N2c3ccccc3C(c3ccccc3)(c3ccccc3)c3ccccc32)cc(-n2c3ccc(C(C)(C)C)cc3c3cc(C(C)(C)C)ccc32)c1C#N`, the absorption maximum (in Cc1ccccc1) is reported as 378 nm.
For `CC(=O)C1=C(O)CC2Oc3c(C(C)=O)c(O)c(C)c(O)c3C2(C)C1=O` (stereo not drawn), the absorption maximum (in ClC(Cl)Cl) was 340 nm.
In the case of `N#Cc1cccc2cc[nH]c12`, the absorption maximum (in C1COCCO1) is reported as 307.36 nm, the absorption maximum (in CC#N) is reported as 309.69 nm and the absorption maximum (in O) is reported as 308 nm.
For `Nc1ccc2c(-c3ccc(Br)cc3)c3ccc(=[NH2+])cc-3oc2c1`, the absorption maximum (in CCO) was 514 nm.
In the case of `N#Cc1c(N2CCCCC2)cc(-c2cccs2)c2c1-c1cccc3cccc-2c13`, the absorption maximum (in O) is reported as 458 nm.
With `c1ccc(-n2nc(-c3ccc(N4c5ccccc5Oc5ccccc54)cc3)nc2-c2ccccn2)cc1` the absorption maximum (in ClCCl) was 341 nm.
For `CC(C)[Si](C#Cc1c2ccccc2c(C#C[Si](C(C)C)(C(C)C)C(C)C)c2nc3c(nc12)C1c2ccccc2C3c2ccccc21)(C(C)C)C(C)C`, the absorption maximum (in CCCCCC) was 445 nm.
Work on `CC(C)(C)c1ccc2c(c1)c1cc(C(C)(C)C)cc3c1n2B1c2c-3cccc2-c2cc(C(C)(C)C)cc3c4cc(C(C)(C)C)ccc4n1c23` yielded an absorption maximum (in C1CCOC1) of 387 nm.
Compound `CC1=C(c2ccc(N(C)C)cc2)C(C)=[N+]2C1=C(c1c(-c3ccccn3)nc3ccccn13)c1c(C)cc(C)n1[B-]2(F)F` has an absorption maximum (in ClCCl) of 538 nm.
`CC1=CC(C)=[N+]2C1=C(C1=C(C)C3=C(C)c4c(C)cc(C)n4[B-](F)(F)[N+]3=C1C)c1c(C)cc(C)n1[B-]2(F)F` gave an absorption maximum (in ClC(Cl)Cl) of 516 nm.

From the Deep4Chem optical property database
